target: T1, Type-1 angiotensin II receptor (Oryctolagus cuniculus, UniProt P34976); assay: Antagonist activity at AT1 receptor in Oryctolagus cuniculus (rabbit) aorta
T1 sequence (P34976 whole entry): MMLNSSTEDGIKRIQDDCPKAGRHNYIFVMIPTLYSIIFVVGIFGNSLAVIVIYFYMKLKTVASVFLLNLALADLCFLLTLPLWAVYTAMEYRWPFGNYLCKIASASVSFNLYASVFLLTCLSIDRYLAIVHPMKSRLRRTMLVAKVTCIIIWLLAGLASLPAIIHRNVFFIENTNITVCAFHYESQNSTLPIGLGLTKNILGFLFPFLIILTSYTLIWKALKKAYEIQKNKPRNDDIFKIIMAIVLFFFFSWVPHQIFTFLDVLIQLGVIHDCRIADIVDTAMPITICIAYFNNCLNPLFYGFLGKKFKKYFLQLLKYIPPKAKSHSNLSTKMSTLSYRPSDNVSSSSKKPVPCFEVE

Structure (SMILES)	IC50 [nM]
CCCCc1nnc(SCc2ccc(C(=O)O)cc2)n1Cc1ccc(NC(=O)c2ccccc2-c2nnn[nH]2)cc1	24
CCCCc1nnc(S(C)(=O)=O)n1Cc1ccc(NC(=O)c2ccccc2-c2nnn[nH]2)cc1	400
CCCCc1nnc(S(=O)(=O)Cc2ccc(Cl)cc2)n1Cc1ccc(NC(=O)c2ccccc2-c2nnn[nH]2)cc1	48
CCCCc1nnc(SCc2ccccc2C)n1Cc1ccc(NC(=O)c2ccccc2-c2nnn[nH]2)cc1	17
CCCCc1nnc(NCc2ccc(Cl)cc2)n1Cc1ccc(NC(=O)c2ccccc2-c2nnn[nH]2)cc1	140
CCCCc1nnc(NCc2ccc(OC)cc2)n1Cc1ccc(NC(=O)c2ccccc2-c2nnn[nH]2)cc1	780
CCCCc1nnc(SCc2ccccc2C(=O)O)n1Cc1ccc(NC(=O)c2ccccc2-c2nnn[nH]2)cc1	1.5
CCCCc1nnc(C(=O)N(C)c2ccccc2)n1Cc1ccc(NC(=O)c2ccccc2-c2nnn[nH]2)cc1	350
CCCCc1nnc(SC)n1Cc1ccc(NC(=O)c2ccccc2-c2nnn[nH]2)cc1	310
CCCCc1nnc(NCc2ccccc2)n1Cc1ccc(NC(=O)c2ccccc2-c2nnn[nH]2)cc1	28
CCCCc1nnc(Sc2ccccc2)n1Cc1ccc(NC(=O)c2ccccc2-c2nnn[nH]2)cc1	100
CCCCc1nnc(C(=O)NCc2ccccc2)n1Cc1ccc(NC(=O)c2ccccc2-c2nnn[nH]2)cc1	57
CCCCc1nnc(SCc2ccccc2)n1Cc1ccc(NC(=O)c2ccccc2-c2nnn[nH]2)cc1	7.1
CCCCc1nnc(OCCc2ccccc2)n1Cc1ccc(NC(=O)c2ccccc2-c2nnn[nH]2)cc1	63
CCCCc1nnc(SC(C)(C)C)n1Cc1ccc(NC(=O)c2ccccc2C(=O)O)cc1	890
CCCCc1nnc([S+]([O-])Cc2ccc(OC)cc2)n1Cc1ccc(NC(=O)c2ccccc2-c2nn[nH]n2)cc1 (stereo unspecified)	50
CCCCc1nnc(SCc2cccc(OC)c2)n1Cc1ccc(NC(=O)c2ccccc2-c2nnn[nH]2)cc1	94
CCCCc1nnc(SCC2CCCCC2)n1Cc1ccc(NC(=O)c2ccccc2-c2nnn[nH]2)cc1	36

Structure (SMILES)	IC50 [nM]
CCCCc1nnc(SCc2ccccc2Cl)n1Cc1ccc(NC(=O)c2ccccc2-c2nnn[nH]2)cc1	110
CCCc1nnc(SCc2ccc(Cl)cc2)n1Cc1ccc(NC(=O)c2ccccc2-c2nnn[nH]2)cc1	98
CCCCc1nnc(SCc2ccccc2-c2nnn[nH]2)n1Cc1ccc(NC(=O)c2ccccc2-c2nnn[nH]2)cc1	1.4
CCCSc1nnc(Cc2ccccc2)n1Cc1ccc(NC(=O)c2ccccc2C(=O)O)cc1	320
CCCCc1nnc(SCC(C)C)n1Cc1ccc(NC(=O)c2ccccc2-c2nnn[nH]2)cc1	72
CCCCc1nnc(SCc2ccc([N+](=O)[O-])cc2)n1Cc1ccc(NC(=O)c2ccccc2-c2nnn[nH]2)cc1	6.6
CCCCc1nnc([S+]([O-])Cc2ccc([N+](=O)[O-])cc2)n1Cc1ccc(NC(=O)c2ccccc2-c2nnn[nH]2)cc1 (stereo unspecified)	8.9
CCCCCc1nnc(SCc2ccc(Cl)cc2)n1Cc1ccc(NC(=O)c2ccccc2-c2nnn[nH]2)cc1	94
CCCCc1nnc(C(=O)N(C)Cc2ccccc2)n1Cc1ccc(NC(=O)c2ccccc2-c2nnn[nH]2)cc1	89
CCCCc1nnc([S+]([O-])Cc2ccccc2C(=O)O)n1Cc1ccc(NC(=O)c2ccccc2-c2nnn[nH]2)cc1 (stereo unspecified)	10
CCCCc1nnc(OCc2ccccc2)n1Cc1ccc(NC(=O)c2ccccc2-c2nnn[nH]2)cc1	370
CCCCc1nnc(SCc2ccc(C(=O)OC)cc2)n1Cc1ccc(NC(=O)c2ccccc2-c2nnn[nH]2)cc1	120
CCCCc1nnc([S+]([O-])Cc2ccc(Cl)cc2)n1Cc1ccc(NC(=O)c2ccccc2-c2nn[nH]n2)cc1 (stereo unspecified)	11
CCCCc1nnc(SCc2ccccc2C(=O)OC)n1Cc1ccc(NC(=O)c2ccccc2-c2nnn[nH]2)cc1	90
CCCCc1nnc(SCc2ccccc2[N+](=O)[O-])n1Cc1ccc(NC(=O)c2ccccc2-c2nnn[nH]2)cc1	130
CCCCc1nnc(SCc2ccccc2CO)n1Cc1ccc(NC(=O)c2ccccc2-c2nnn[nH]2)cc1	36
CCCCc1nnc(SCCc2ccccc2)n1Cc1ccc(NC(=O)c2ccccc2-c2nnn[nH]2)cc1	35
CCCCc1nnc(S)n1Cc1ccc(NC(=O)c2ccccc2C(=O)O)cc1	860
